Assay results taken from ChEMBL document CHEMBL5325471, “Identification of new modulator of DNA repairing pathways based on natural product (±)-peharmaline A” (Bioorg Med Chem, 2023).
pIC50: −log10 of the molar value. Activity calls are given as the source filed them. No cut-off for these calls is given here.

Experiments:
MCF7 = experiment: Antiproliferative activity against human MCF7 cells assessed as cell growth inhibition incubated for 44 hrs by MTT assay; format: functional, cell-based; conditions: MCF7, 44 h
[1] = AUC (0 to t) in BALB/c mouse at 20 mg/kg, ip measured upto 24 hrs by LC-MS/MS analysis; format: ADME, organism-based; design: time < 24 hrs, dose 20 mg/kg, route ip; conditions: in vivo
[2] = Clearance in BALB/c mouse at 20 mg/kg, ip measured upto 24 hrs by LC-MS/MS analysis; format: ADME, organism-based; conditions: in vivo
HCT-116 [3] = experiment: Induction of DNA damage in human HCT-116 cell assessed as comet tail formation at 0.5 uM incubated for 24 hrs by EtBr-based alkaline Comet assay (Rvb= 2.99 %); format: functional
HCT-116 [4] = experiment: Induction of cell cycle arrest in human HCT-116 cells assessed as accumulation of cells at G1 phase at 1 uM incubated for 24 hrs by RNase/PI staining-based FACS flow cytometry analysis (reference value: 51 %); format: functional
HCT-116 [5] = experiment: Induction of DNA damage in human HCT-116 cells assessed as increase in phosphorylated gamma-H2AX foci formation at 0.5 to 2 uM incubated for 24 hrs by DAPI staining based immunofluorescence analysis; format: functional, cell-based; conditions: dose 0.5-2 µM
HCT-116 [6] = experiment: Inhibition of epithelial-to-mesenchymal transition in human HCT-116 cells assessed as upregulation of E-cadherin protein expression by immunoblot analysis; format: functional, cell-based
HCT-116 [7] = experiment: Inhibition of epithelial-to-mesenchymal transition in human HCT-116 cells assessed as reduction in VEGF-induced cell scattering incubated for 48 hrs by inverted microscopic analysis; format: functional, cell-based
4T1 = experiment: Antitumor activity against mouse 4T1 cells implanted in BALB/c mouse assessed as reduction in tumor weight at 20 mg/kg, ip administered every alternate day for 2 weeks relative to control; format: functional; design: scale not given: the % may be the effect or the level left
HCT-116 [8] = experiment: Induction of DNA damage in human HCT-116 cell assessed as increase in olive tail moment at 4 uM incubated for 24 hrs by EtBr-based alkaline Comet assay (Rvb= 0.26%); format: functional
HCT-116 [9] = experiment: Induction of DNA damage in human HCT-116 cell assessed as comet tail formation at 1 uM incubated for 24 hrs by EtBr-based alkaline Comet assay (Rvb= 2.99 %); format: functional
HCT-116 [10] = experiment: Inhibition of DNA repairing pathway in human HCT-116 cells assessed as increase in cleaved PARP level at 0.25 to 2 uM incubated for 24 hrs by immunoblotting analysis; format: functional, cell-based; conditions: dose 0.25-2 µM

With `COC(=O)[C@]1([C@H]2CCn3c2nc2ccccc2c3=O)NCCc2c1[nH]c1ccccc21` (racemic) as the compound, how does the pIC50 (MCF7) read?
The pIC50 was 5.85.

And the AUC(0-t) at 24 h [1]?
Its AUC(0-t) at 24 h is 11000 ng·h/mL.

What about the CL/F [2] of the same compound?
Its CL/F is 30 mL/min/kg.

What about the Activity (HCT-116 [3]) of the same compound?
Its Activity is 31.99%.

What about the Activity (HCT-116 [4]) of the same compound?
Its Activity is 71%.

And the Activity (HCT-116 [5])?
The Activity was “Active”.

And the inhibition (HCT-116 [6])?
Its inhibition is “Active”.

And the inhibition (HCT-116 [7])?
The inhibition was “Active”.

What about the Activity (4T1) of the same compound?
The Activity was 63%.

What about the Activity (HCT-116 [8]) of the same compound?
The Activity was 24.72%.

And the Activity (HCT-116 [9])?
The Activity was 48%.

And the inhibition (HCT-116 [10])?
Its inhibition is “Active”.
